Calls of active or inactive are those of the source.
How the values were obtained:
[1] = biological target: E3 ubiquitin-protein ligase Mdm2 (Homo sapiens, UniProt Q00987); experiment: enhancers of MDM2-luciferase reporter signal, concentration-effect titration, project on inhibitors of MDM2 ubiquitin ligase, cellular assay, luminescent readout, 384-well plate format (AID 1394); type: functional;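 also: MDM2 E3 inhibitors raise luminescence so EC50 is for signal enhancement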
[2] = biological target: T1, Carboxy-terminal domain RNA polymerase II polypeptide A small phosphatase 1 (Homo sapiens, UniProt Q9GZU7); experiment: inhibitors of CTDSP1, concentration-response testing, biochemical assay, absorbance-based, actives from ultra-high-throughput screening (AID 540297); type: functional
T1 sequence (Q9GZU7 whole entry): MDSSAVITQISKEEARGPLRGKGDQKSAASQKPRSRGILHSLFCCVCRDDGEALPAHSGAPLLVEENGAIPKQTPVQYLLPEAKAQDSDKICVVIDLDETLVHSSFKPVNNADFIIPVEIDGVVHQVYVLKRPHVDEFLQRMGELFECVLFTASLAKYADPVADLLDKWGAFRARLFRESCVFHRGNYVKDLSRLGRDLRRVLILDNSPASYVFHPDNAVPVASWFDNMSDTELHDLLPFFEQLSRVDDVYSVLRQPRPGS

[3] = biological target: Mitogen-activated protein kinase 10 (Homo sapiens, UniProt P53779); experiment: Dose response biochemical screening assay for inhibitors of c-Jun N-Terminal Kinase 3 (JNK3). [Related pubchem assays: 746 ]
Coagulation factor XII = biological target: T2, Coagulation factor XII (Homo sapiens, UniProt P00748); type: functional;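 also: activated factor XIIa alpha cleaving a fluorogenic AMC peptide substrate; inhibitor potency from loss of enzyme activity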
T2 sequence (P00748 whole entry): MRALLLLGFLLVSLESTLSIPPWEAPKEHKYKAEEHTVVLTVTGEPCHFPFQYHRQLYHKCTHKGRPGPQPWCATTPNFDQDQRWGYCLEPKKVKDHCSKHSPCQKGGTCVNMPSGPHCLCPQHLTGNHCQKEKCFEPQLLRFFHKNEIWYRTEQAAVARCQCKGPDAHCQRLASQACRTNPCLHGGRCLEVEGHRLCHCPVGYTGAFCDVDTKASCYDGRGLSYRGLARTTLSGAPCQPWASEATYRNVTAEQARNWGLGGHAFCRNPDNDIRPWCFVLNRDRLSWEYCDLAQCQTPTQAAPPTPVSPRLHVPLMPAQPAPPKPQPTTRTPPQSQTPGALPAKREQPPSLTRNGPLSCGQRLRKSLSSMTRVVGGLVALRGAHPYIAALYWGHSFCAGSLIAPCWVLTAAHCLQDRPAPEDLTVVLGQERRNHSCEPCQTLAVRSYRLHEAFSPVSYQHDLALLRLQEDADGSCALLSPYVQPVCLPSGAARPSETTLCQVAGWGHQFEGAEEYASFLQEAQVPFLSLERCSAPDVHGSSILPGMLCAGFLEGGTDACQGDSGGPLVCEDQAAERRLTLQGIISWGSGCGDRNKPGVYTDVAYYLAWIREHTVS

[4] = biological target: T3, Mannose-6-phosphate isomerase (Homo sapiens, UniProt P34949); experiment: human PMI inhibitors, high substrate, primary screen, biochemical, fluorescence intensity, high mannose 6-phosphate (AID 1220)
T3 sequence (P34949 whole entry): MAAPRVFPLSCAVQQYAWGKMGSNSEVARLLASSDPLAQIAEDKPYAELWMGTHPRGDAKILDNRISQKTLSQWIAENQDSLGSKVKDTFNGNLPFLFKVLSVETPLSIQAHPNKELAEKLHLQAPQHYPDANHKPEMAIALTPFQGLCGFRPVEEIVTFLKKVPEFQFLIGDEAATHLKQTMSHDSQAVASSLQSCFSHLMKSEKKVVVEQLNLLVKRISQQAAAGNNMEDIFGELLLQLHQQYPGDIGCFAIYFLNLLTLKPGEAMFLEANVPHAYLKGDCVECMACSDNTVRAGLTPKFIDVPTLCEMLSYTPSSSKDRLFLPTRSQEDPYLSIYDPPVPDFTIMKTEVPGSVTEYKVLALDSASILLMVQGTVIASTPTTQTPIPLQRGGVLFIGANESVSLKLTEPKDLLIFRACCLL

Nonstructural protein 1 = Nonstructural protein 1 (Influenza A virus, UniProt Q194T2); type: functional, Influenza A virus (A/California/07/2009(H1N1))
SUMO-activating enzyme [5] = biological target: T4, SUMO-activating enzyme (Homo sapiens, UniProt Q9UBT2); experiment: SUMOylation inhibitor hit validation, confirmation, SUMOylation inhibitor project, biochemical, AlphaScreen (AID 2018); type: functional
SUMO-activating enzyme [6] = biological target: T4, SUMO-activating enzyme; experiment: inhibitors of in vitro SUMOylation cascade, primary screen, biochemical, HTRF, uHTS (AID 2006); type: protein-complex assay
[7] = biological target: Bifunctional protein GlmU (Mycobacterium tuberculosis, UniProt P9WMN3); experiment: Inhibitors of Mycobacterial Glucosamine-1-phosphate acetyl transferase (GlmU). Secondary screen.; set-up: species or system Mycobacterium tuberculosis H37Rv
[8] = biological target: T5, Heat shock factor protein 1 (Mus musculus, UniProt P38532); experiment: inhibition of MG132-induced HSE-luciferase signal, confirmation, cell-based, NIH3T3, luminescence, dose retest (AID 2382); type: functional;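 also: NIH3T3 fibroblasts with HSF1-driven luciferase reporter stressed by proteasome inhibitor MG132; luminescence from HSF1-driven luciferase expression after 8 hours of MG132 stress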
T5 sequence (P38532 whole entry): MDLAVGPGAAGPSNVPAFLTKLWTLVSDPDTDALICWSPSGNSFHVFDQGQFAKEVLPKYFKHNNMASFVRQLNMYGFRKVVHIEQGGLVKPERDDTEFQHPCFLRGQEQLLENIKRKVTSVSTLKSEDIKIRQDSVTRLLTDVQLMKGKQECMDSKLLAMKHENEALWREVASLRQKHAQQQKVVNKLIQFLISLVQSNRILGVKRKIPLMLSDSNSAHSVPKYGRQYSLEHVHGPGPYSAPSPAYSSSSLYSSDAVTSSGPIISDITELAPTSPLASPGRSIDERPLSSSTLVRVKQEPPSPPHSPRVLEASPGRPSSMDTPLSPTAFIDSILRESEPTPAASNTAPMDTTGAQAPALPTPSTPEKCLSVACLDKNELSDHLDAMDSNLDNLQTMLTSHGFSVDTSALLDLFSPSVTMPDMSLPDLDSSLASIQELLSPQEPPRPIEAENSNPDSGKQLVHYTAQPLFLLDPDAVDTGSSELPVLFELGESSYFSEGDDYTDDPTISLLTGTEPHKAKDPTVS

[9] = biological target: Heat shock protein HSP 90-alpha (Homo sapiens, UniProt P07900); experiment: Luminescence-based dose response biochemical high throughput screening assay for inhibitors of the Heat Shock Protein 90 (HSP90). [Related pubchem assays: 1831 (Summary AID.), 1846 (Confirmation screen.), 1789 (Primary screen.)]
Jurkat = experiment: antigen receptor-induced NF-kB inhibitors, dose response, Jurkat, luciferase reporter, luminescence, B- and T-cell (AID 489004); type: functional, cell-based; settings: Homo sapiens;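 also: NF-kB luciferase reporter Jurkat cells stimulated with PMA plus ionomycin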
[10] = cytotoxicity in HEK-293T NF-kB-Luc cells, dose response, cytotoxicity control for B/T-cell NF-kB inhibitor project, cell-based, uHTS hits (AID 489019); type: functional;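 also: IC50 reflects cytotoxicity as loss of cell viability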
[11] = inhibitors of HIV Env-driven cell fusion, dose response, cherry-pick (AID 652057); type: functional, cell-based
[12] = ZM109 Env clade C HIV-1 fusion inhibitors, dose response, HeLa effector, CEM target cells, luciferase, cherry-pick (AID 652058); type: functional, cell-based
Paired box protein Pax-8 = Paired box protein Pax-8 (Homo sapiens, UniProt Q06710); experiment: inhibitors of PAX8-driven TPO luciferase reporter, dose response, RMG-I cells, cherry-pick (AID 687027); type: functional, cell-based;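 also: luciferase reporter driven by Pax8 target thyroperoxidase promoter measured by SteadyGlo luminescence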
[13] = off-target signal loss in HeLa-CEM21 co-culture – HeLa F-luc CTL cells, cherry-picked, counter-screen for HIV-1 Env fusion inhibitor project, dose response (AID 652040); type: functional, cell-based;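 also: potency for signal decrease marking cytotoxic or nonspecific inhibition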
[14] = inhibitors of clade B AD8 Env fusion, dose response, cell-based, cherry-pick (AID 652062); type: functional;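 also: luciferase signal from cell-cell fusion driven by HIV-1 clade B AD8 Env; potency is for inhibitors of fusion seen as a drop in luminescence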
[15] = A549 cell cytotoxicity, dose response, cytotoxicity control, plate reader, cherry-pick, antagonist series (AID 743412); type: functional, cell-based
[16] = LGR2 antagonists, dose response, cell-based, HEK293, CRE-luciferase reporter, cherry pick, set 2 (AID 743343); type: functional;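 also: transfected cells were stimulated with diluted bursicon conditioned medium after compound addition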
[17] = MC4R antagonists, dose response, counter-screen for LGR2 antagonist project, cell-based, plate reader, cherry pick (AID 743444); type: functional;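 also: transfected HEK 293 cells stimulated with alpha-MSH peptide; potency of inhibitors of the alpha-MSH evoked signal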
[18] = HEK293 cell cytotoxicity, dose response, cytotoxicity control, plate reader, cherry-picked samples (AID 743446); type: functional, cell-based
[19] = biological target: T6, Tyrosine-protein phosphatase non-receptor type 7 (Homo sapiens, UniProt P35236); experiment: inhibitors of human HePTP phosphatase, […], biochemical, absorbance, leukemia target (AID 521); type: functional
T6 sequence (P35236 whole entry): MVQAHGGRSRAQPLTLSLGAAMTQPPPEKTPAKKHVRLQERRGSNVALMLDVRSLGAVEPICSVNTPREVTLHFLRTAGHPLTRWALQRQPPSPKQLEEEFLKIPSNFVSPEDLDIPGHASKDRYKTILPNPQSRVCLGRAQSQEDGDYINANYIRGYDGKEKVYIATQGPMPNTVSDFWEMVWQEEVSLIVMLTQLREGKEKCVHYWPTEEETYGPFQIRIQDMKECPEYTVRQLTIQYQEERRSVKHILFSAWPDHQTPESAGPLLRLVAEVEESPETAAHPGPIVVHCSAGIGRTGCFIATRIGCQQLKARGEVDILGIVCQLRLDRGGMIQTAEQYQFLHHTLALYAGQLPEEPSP

T4 sequence (Q9UBE0 whole entry): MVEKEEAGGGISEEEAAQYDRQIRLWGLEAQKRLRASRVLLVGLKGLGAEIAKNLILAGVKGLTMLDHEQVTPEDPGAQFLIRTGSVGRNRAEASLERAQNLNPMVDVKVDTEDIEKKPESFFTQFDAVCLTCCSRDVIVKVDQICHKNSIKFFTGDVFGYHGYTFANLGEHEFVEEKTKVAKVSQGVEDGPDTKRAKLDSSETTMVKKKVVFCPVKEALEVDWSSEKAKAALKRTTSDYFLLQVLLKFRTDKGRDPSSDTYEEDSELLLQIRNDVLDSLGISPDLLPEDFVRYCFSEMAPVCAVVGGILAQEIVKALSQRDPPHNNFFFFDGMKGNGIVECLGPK
T4 sequence (Q9UBT2 whole entry): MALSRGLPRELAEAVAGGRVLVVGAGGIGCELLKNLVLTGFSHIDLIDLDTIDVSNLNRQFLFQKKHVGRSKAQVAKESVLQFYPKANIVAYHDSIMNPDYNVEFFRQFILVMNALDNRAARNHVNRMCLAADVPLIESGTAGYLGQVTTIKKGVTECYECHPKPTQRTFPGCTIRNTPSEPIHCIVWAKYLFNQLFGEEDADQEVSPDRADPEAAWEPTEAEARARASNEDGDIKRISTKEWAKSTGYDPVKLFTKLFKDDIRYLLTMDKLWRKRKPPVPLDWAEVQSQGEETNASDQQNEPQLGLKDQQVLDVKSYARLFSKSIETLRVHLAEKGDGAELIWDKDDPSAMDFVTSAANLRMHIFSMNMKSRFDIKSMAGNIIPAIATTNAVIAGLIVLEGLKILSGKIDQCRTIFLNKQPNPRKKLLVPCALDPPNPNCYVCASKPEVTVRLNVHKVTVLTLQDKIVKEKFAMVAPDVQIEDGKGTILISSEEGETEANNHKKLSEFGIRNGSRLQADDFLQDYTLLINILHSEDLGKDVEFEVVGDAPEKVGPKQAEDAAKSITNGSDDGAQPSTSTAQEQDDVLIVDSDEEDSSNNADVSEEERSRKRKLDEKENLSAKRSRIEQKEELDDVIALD
Chain of E3 ubiquitin-protein ligase Mdm2 (Q00987 whole entry, the tested form may be a part): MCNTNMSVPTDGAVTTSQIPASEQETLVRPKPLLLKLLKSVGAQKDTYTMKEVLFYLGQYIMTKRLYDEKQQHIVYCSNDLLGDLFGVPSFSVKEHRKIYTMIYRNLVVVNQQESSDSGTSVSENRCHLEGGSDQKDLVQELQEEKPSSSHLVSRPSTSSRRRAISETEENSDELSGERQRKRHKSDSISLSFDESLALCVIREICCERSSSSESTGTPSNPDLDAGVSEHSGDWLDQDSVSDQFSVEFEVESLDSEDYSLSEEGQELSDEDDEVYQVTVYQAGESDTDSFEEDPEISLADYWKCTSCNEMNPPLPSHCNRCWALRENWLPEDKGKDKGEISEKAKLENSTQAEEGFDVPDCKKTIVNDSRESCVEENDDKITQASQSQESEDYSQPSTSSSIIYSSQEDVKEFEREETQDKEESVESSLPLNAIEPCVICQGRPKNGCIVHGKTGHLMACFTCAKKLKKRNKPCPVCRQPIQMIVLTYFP
Chain of Mitogen-activated protein kinase 10 (P53779 whole entry): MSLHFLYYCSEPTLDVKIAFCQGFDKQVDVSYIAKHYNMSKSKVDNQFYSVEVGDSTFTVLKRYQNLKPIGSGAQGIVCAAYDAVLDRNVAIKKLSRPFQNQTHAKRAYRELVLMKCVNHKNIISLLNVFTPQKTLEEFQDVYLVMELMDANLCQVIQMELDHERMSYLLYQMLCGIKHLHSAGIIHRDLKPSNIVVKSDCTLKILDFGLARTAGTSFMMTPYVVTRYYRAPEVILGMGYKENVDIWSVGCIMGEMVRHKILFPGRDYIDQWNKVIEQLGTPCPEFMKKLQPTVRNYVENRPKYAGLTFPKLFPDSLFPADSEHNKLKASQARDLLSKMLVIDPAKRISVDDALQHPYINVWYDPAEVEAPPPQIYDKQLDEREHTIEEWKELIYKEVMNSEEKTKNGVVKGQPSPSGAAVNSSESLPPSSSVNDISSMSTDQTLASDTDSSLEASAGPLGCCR
Chain of Paired box protein Pax-8 (Q06710 whole entry, the tested form may be a part): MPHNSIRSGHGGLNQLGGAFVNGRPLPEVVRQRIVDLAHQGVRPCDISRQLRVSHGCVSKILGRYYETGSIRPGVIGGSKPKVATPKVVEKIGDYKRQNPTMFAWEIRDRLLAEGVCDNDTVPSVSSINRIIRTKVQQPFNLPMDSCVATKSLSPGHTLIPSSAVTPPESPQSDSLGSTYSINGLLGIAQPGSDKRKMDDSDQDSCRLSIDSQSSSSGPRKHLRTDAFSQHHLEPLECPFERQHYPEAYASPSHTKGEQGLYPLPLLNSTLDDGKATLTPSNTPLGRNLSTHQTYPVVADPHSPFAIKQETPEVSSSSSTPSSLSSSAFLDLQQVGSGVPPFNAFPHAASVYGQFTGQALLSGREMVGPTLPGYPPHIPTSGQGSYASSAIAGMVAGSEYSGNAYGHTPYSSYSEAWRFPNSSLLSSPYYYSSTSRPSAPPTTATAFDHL
Chain of Bifunctional protein GlmU (P9WMN3 whole entry): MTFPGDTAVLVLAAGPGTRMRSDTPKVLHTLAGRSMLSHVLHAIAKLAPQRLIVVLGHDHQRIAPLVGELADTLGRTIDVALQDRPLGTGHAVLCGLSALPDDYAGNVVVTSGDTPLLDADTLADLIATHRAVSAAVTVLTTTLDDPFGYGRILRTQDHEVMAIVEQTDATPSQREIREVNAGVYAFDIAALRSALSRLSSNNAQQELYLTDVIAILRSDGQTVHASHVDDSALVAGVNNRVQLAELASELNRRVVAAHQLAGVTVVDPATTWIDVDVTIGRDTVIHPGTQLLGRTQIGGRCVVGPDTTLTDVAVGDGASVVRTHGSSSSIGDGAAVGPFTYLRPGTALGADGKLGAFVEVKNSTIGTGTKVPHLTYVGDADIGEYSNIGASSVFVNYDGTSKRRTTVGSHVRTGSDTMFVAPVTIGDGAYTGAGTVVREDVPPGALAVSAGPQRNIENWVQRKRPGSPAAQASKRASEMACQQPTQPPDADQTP
Chain of Nonstructural protein 1 (Q194T2 whole entry): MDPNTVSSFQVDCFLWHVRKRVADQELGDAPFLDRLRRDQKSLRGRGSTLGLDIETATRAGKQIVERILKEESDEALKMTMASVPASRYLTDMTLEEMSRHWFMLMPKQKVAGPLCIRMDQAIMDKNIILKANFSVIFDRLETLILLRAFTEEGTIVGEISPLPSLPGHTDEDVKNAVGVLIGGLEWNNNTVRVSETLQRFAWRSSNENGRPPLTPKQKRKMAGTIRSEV

Structure (SMILES): O=C1CCN(Cc2ccccc2)S(=O)(=O)c2ccccc21
- EC50 [1]: 3.06 µM (not active)
- IC50 [2]: 39.3 µM (active)

Structure (SMILES): NC(=O)c1c(NC(=O)C2CCCO2)sc2c1CCC2 (stereo not drawn)
- IC50 [3]: 42.5 µM (not active)
- IC50 (Coagulation factor XII): > 50 µM (inactive)

Structure (SMILES): Nc1ccccc1NC1CCCCC1
- IC50 [4]: > 50 µM (not active)
- IC50 (Nonstructural protein 1): 64.8 µM (active)

Structure (SMILES): N#C/C(=C/c1ccc(-c2cc(C(=O)O)cc(C(=O)O)c2)o1)c1nc2ccccc2s1
- IC50 (SUMO-activating enzyme [5]): 2.81 µM (active)
- IC50 (SUMO-activating enzyme [6]): 15.9 µM (active)
- IC50 [7]: 19.1 µM (active)

Structure (SMILES): O=C(CN1C(=O)c2ccccc2S1(=O)=O)c1ccc2c(c1)OCCO2
- EC50 [8]: 0.418 µM (active)
- IC50 [9]: 1.39 µM (active)
- IC50 (Jurkat): 0.17 µM (active)
- IC50 [10]: > 80 µM (inactive)
- AC50 [11]: 0.339 µM (active)
- AC50 [12]: 1.08 µM (active)
- AC50 (Paired box protein Pax-8): 1.64 µM (active)
- AC50 [13]: 0.556 µM (active)
- AC50 [14]: < 0.26 µM (active)
- AC50 [15]: 22.9 µM (active)
- AC50 [16]: 0.126 µM (active)
- AC50 [17]: 0.206 µM (active)
- AC50 [18]: > 52 µM (inactive)

Structure (SMILES): CC(=O)Oc1oc(-c2ccccc2)nc1/C=N/c1ccccn1
- IC50 [19]: > 100 µM (not active)

Source: ChEMBL document CHEMBL1201862, “PubChem BioAssay data set” (2004)
